Data published in patent US7358249B2, “Heterocyclic compounds having inhibitory activity against HIV integrase” (Shionogi & Co., Ltd., priority 2002, dated 2008).
Values joined by “and” are separate entries in the source; they are usually repeats but may differ in a detail not shown here. Equal entries are not always repeated.

Key:
HIV integrase = HIV integrase (Human immunodeficiency virus type 1 group M subtype B, UniProt P04585); assay: integrase inhibition assay (microtiter plate, substrate DNA / target DNA); format: biochemical; conditions: integrase 30 pmol, incubated at 30° C. for 1 hour, OD at 405 nm; concentration at percent inhibition 50%; read-out: MIA, IC50 (ug/ml) (converted)
Method: The inhibitory activities against integrase of the presnt compounds were determined by the assay described below.
(1) Preparation of DNA Solutions
Substrate DNA and target DNA synthesized by Amersham Pharmacia Biotech, which sequences were indicated below, were dissolved in KTE buffer (composition: 100 mM KCl, 1 mM EDTA, 10 mM Tris-HCl (pH 7.6)) at a concentration of 2 pmol/μl and 5 pmol/μl, respectively. The DNA solutions were heated and then slowly cooled so that they were annealed with each complement.
(Sequence of Substrate DNA)
(2) Calculations of the percent inhibitions (IC50 values of test compounds)
Streptavidin, obtained from Vector Laboratories, was dissolved in 0.1 M carbonate buffer (composition: 90 mM Na2CO3, 10 mM NaHCO3) at a concentration of 40 μg/ml. After coating each well of microtiter plates (obtained from NUNC) with 50 μl of the above solution at 4° C. over night, each well was washed twice with PBS (composition: […], 0.27 mM KCl, 0.43 mM Na2HPO4, 0.14 mM KH2PO4) and blocked with 300 μl of 1% skim milk in PBS for 30 min. Additionally, each well was washed twice with PBS and added with 50 μl of the substrate DNA solution (2 pmol/μl). The microtiter plates were kept at room temperature for 30 min. Then, each well was washed twice with PBS and once with H2O.
Subsequently, to the each well prepared above were added 45 μl of the reaction buffer prepared from 12 μl of the buffer (composition: 150 mM MOPS (pH 7.2), 75 mM MnCl2, 50 mM 2-mercaptoethanol, 25% glycerol, 500 μg/ml bovine serum albumin-fraction V), 1 μl of target DNA (5 pmol/μ), and 32 μl of the distilled water. Additionally, 6 μl of either a test compound in DMSO or DMSO for positive control (PC) was mixed with the above reaction buffer, then 9 μl of an integrase solution (30 pmol) was added thereto and the mixture was mixed well. To the well of negative control (NC) was added 9 μl of the integrase dilution buffer (composition: 20 mM MOPS (pH7.2), 400 mM potassium glutamate, 1 mM EDTA, 0.1% NP-40, 20% glycerol, 1 mM DTT, 4 M urea).
The microtiter plates were incubated at 30° C. for 1 hour. The reaction solution was removed and each well was washed twice with PBS. Subsequently, each well of the microtiter plates was filled with 100 μl of anti-digoxigenin antibody labeled with alkaline phosphatase (Sheep Fab fragment: obtained from Boehringer) and incubated at 30° C. for 1 hour. Then, each well was washed twice with 0.05% Tween20 in PBS and once with PBS. Next, 150 μl of the Alkaline phosphatase reaction buffer (composition: 10 mM p-Nitrophenylphosphate (obtained from Vector Laboratories), 5 mM MgCl2, 100 mM NaCl, 100 mM Tris-HCl (pH 9.5)) was added to each well. The microtiter plates were incubated at 30° C. for 2 hours and the reaction was terminated by the addition of 50 μl of 1 N NaOH solution. The optical density (OD) at 405 nm of each well was measured and the percent inhibition was determined by the following expression. The percent inhibition (%)=100[1−{(C abs.−NC abs.)/(PC abs.−NC abs.)}]
C abs.; the OD of the well of the test compound
NC abs.: the OD of the negative control (NC)
PC abs.: the OD of the positive control (PC)
When the percent inhibition (%) is X % at a concentration of x μg/ml and the percent inhibition (%) is Y % at a concentration of y μg/ml, one of which is more than 50% and the other is less than 50%, IC50 can be determined by the following expression. IC50 (μg/ml)=x−{(X−50)(x−y)/(X−Y)}
Compound No. in the Table 1 is the same as compound No. of the above Examples.

Row | SMILES | melting point | IC50 (HIV integrase) [nM]
1 | CN=C(Nc1cc(C(=O)OC)c(O)c2ncc(Cc3ccc(F)cc3)cc12)SC [Compound I-19, 5-(2,3-Dimethylisothioureido)-3-(4-fluorobenzyl)-8-hydroxyquinoline-7-carboxylic acid methylester] | 198.5 to 199.5 °C | 1040
2 | COC(=O)c1nc(NC(=O)c2ccco2)c2cc(Cc3ccc(F)cc3)cnc2c1O [Compound A-66, 3-(4-Fluorobenzyl)-5-(frane-2-carbonyl)amino-8-hydroxy[1,6]naphthylidine-7-carboxylic acid methyl ester] | 200 to 202 °C | 688
3 | COC(=O)c1cc(C(=O)O)c2cc(Cc3ccc(F)cc3)cnc2c1O [Compound I-3, 3-(4-Fluorobenzyl)-8-hydroxy-quinoline-5,7-dicarboxylic acid 7-methylester] | 237 to 239 °C | 394
4 | COC(=O)c1cc(NC(C)=O)c2cc(Cc3ccc(F)cc3)cnc2c1O [Compound I-10, 5-Acetylamino-3-(4-fluorobenzyl)-8-hydroxyquinoline-7-carboxylic acid methylester] | 243 to 245 °C | 1300
5 | COC(=O)c1cc(N)c2cc(Cc3ccc(F)cc3)cnc2c1O [Compound I-8, 5-Amino-3-(4-fluorobenzyl)-8-hydroxyquinoline-7-carboxylic acid methyl ester] | 114 to 115 °C | 398
6 | COC(=O)c1nc(C(=O)N2CCN(C)CC2)c2cc(Cc3ccc(F)cc3)cnc2c1O [Compound A-54, 5-(4-Methylpiperadine-1-carbonyl)-3-(4-fluorobenzyl)-8-hydroxy[1,6]naphthylidine-7-carboxylic acid methyl ester] | 226 to 227 °C | 1300
7 | COC(=O)c1cc(N2CCOC2=O)c2cc(Cc3ccc(F)cc3)cnc2c1O [Compound I-183, 3-(4-Fluorobenzyl)-8-hydroxy-5-(2-oxo-oxazolidine-3-yl)-quinoline-7-carboxylic acid methyl ester] | 152 to 153 °C | 353
8 | O=C(O)c1cc(C(=O)O)c2cc(Cc3ccc(F)cc3)cnc2c1O [Compound I-4, 3-(4-Fluorobenzyl)-8-hydroxyquinoline-5,7-dicarboxylic acid] | 279 to 282 °C | 352
9 | COCCC(=O)Nc1nc(C(=O)OC)c(O)c2ncc(Cc3ccc(F)cc3)cc12 [Compound A-34, 3-(4-Fluorobenzyl)-8-hydroxy-5-(3-methoxy-1-propionyl)amino[1,6]naphthylidine-7-carboxylic acid methyl ester] | 205 to 206 °C | 701
10 | COC(=O)c1cc(NC2CCCCC2)c2cc(Cc3ccc(F)cc3)cnc2c1O [Compound I-15, 5-Cyclohexylamino-3-(4-fluorobenzyl)-8-hydroxyquinoline-7-carboxylic acid methylester] | 75.5 to 77.5 °C | 1620
11 | CCOC(=O)Nc1cc(C(=O)OC)c(O)c2ncc(Cc3ccc(F)cc3)cc12 [Compound I-9, 5-Ethoxycarbonylamino-3-(4-fluorobenzyl)-8-hydroxyquinoline-7-carboxylic acid methyl ester] | 205 to 206 °C | 703
12 | COC(=O)c1cc(C(=O)NCCO)c2cc(Cc3ccc(F)cc3)cnc2c1O [Compound I-5, 3-(4-Fluorobenzyl)-8-hydroxy-5-(2-hydroxyethylcarbamoyl)quinoline-7-carboxylic acid methylester] | 207 to 208 °C | 502
13 | COC(=O)c1nc(C#CCNS(C)(=O)=O)c2cc(Cc3ccc(F)cc3)cnc2c1O [Compound A-50, 3-(4-Fluorobenzyl)-8-hydroxy-5-[3-(methanesulfonyamino)propyn-1-yl][1,6]naphthylidine-7-carboxylic acid methyl ester] | 223 to 225 °C | 248
14 | COC(=O)c1cc(NS(C)(=O)=O)c2cc(Cc3ccc(F)cc3)cnc2c1O [Compound I-12, 3-(4-Fluorobenzyl)-8-hydroxy-5-methanesulfonylaminoquinoline-7-carboxylic acid methyl ester] | 189.5 to 190.5 °C | 1240
15 | COC(=O)c1nc(NS(C)(=O)=O)c2cc(Cc3ccc(F)cc3)cnc2c1O [Compound A-9, Methyl 3-(4-fluorobenzyl)-8-hydroxy-5-methanesulfonylamino-1,6-naphthylidine-7-carboxylate] | 205 to 210 °C | 222
16 | COC(=O)c1cc(-c2n[nH]c(C)n2)c2cc(Cc3ccc(F)cc3)cnc2c1O [Compound I-134, 3-(4-Fluorobenzyl)-8-hydroxy-5-(5-methyl-1H-[1,2,4]triazole-3-yl)quinoline-7-carboxylic acid methyl ester] | 200 to 202 °C and 195 to 196 °C | 357
